# Values quoted from earlier work as cited in patent US20060093676A1, “Ascorbic acid stability” (priority 2002, published 2006).
# Conditions: in water
compound,measurement,value
O=C1O[C@H]([C@@H](O)CO)C(O)=C1O [L-Ascorbic acid],pK of acid-ionizable hydrogen,4.2
